Data from patent USRE43135E1, “Method of improving dough and bread quality” (Danisco A/S, priority 2001, dated 2012).

Columns and labels:
[1] = enzyme expressed in a baculovirus system, Matos et al; cited from earlier work
[2] = Model dough, GLC analysis of non-polar lipids (cowpea LAH); type: biochemical, wheat; conditions: Example 1, FIG. 7, compared with activity on polar lipids and free fatty acid formation
Method: (§1) 10 g of flour and 0.020 g sodium chloride were mixed in a 10 g Farinograph mixing bowl for 1 minute either with or without enzymes. Subsequently water (500 Brabender units) was added and mixed for 5 minutes at 30° C. After mixing the dough was placed at 32° C. for 1 hour, and then frozen and freeze dried prior to further analysis.
(§2) Perkin Elmer 8420 Capillary Gas Chromatography equipped with WCOT fused silica column 12.5 m×0.25 mm ID×0.1 μm 5% phenyl-methyl-silicone (CP Sil 8 CB from Crompack). • Carrier: Helium. • Injection: 1.5 μl with split. • Detector: FID. 385° C.
(§3) Sample preparation: 50 mg wheat lipid was dissolved in 12 ml heptane: pyridine 2:1 containing an internal standard heptadecane, 2 mg/ml. 500 μl of the sample was transferred to a crimp vial. 100 μl MSTFA (N-Methyl-N-trimethylsilyltrifluoracetamid) was added and the reaction incubated for 15 minutes at 90° C. Calculation: Response factors for mono-di-triglycerides and free fatty acid were determined from reference mixtures of these components. Based on these response factors the mono-di-triglycerides and free fatty acids in wheat lipids were calculated.
The non-polar lipids were analysed by GLC.

[3] = Assay for enzyme activity with pNP-Caprate; type: biochemical; conditions: desalted/concentrated sample of purification step 5 (used for baking trials)
Method: Preparation of substrate for enzymatic assay: The substrate, pNP-Caprate (C10), was dissolved in ethanol and diluted in 100 mM Na-Phosphate-buffer (pH 6.3) to a final concentration of 0.1 mg,/ml substrate and 30% ethanol respectively, and kept at room temperature.
Assay method: The enzyme assay mixture contained 30 μl sample/blank and 250 μl substrate. The mixture was incubated at 35° C. for 30 minutes (420 nm) whilst simultaneously running an ELISA-reader (420 nm) kinetic program. The Vmax value was used for calculation of enzyme activity (U/ml). Vmax was converted to μmol from a standard curve for solutions of pNP measured under the same conditions as the sample. The enzyme activity is defined as the amount of enzyme which produce 1 μmol of pNP per min. at 35° C.

[4] = Minibread dough, GLC analysis of non-polar dough lipids; type: biochemical, wheat
Method: (§4) 10 g of fully proofed dough was immediately frozen and freeze dried. The freeze-dried dough was milled in a coffee mill and passed through an 800 micron screen. 1.5 g freeze-dried dough was scaled in a 15 ml centrifuge tube with screw top lid. 7.5 ml water saturated butanol (WSB) was added. The centrifuge tube was placed in a boiling water bath for 10 minutes. The tubes were placed in a Rotamix and rotated at 45 rpm for 20 minutes at ambient temperature and then placed in a boiling water bath again for a further 10 minutes prior to being Rotated on the Rotamix for a further 30 minutes at ambient temperature. The tubes were centrifuged at 3500 g for 5 minutes. 5 ml supernatant was transferred into a vial and the WSB was evaporated to dryness under a steam of nitrogen.
as §2, §3

[5] = Enzyme-catalysed degumming of vegetable oil; type: biochemical; conditions: rapeseed oil degumming; preliminary results
Method: Vegetable oil, in particular rapeseed oil, was treated with LAH isolated from cowpea to effect degumming of the oil. The process used was essentially as per the enzyme-catalysed degumming process of vegetable oil generally taught in Buchold, H. (Fat Sci. Technol. 95 Jahrgang nr. 8, 1993, pp300-305), excepting that LAH was used.

[6] = Model dough, HPLC analysis of polar lipids in dough (cowpea LAH); type: biochemical, wheat
Method: as §1, §4
(§5) Determination of Free Fatty Acids for Lipase Assay, JAOCS 63:89). Determination of Glycolipids and Phospholipids by HPLC.
(§6) The calibration curve for PC was used to calculate the amounts of the glycolipids and phospholipids.
Lipids extracted from the dough were further analysed by HPLC in order to study the effect on polar lipids in the dough.

[7] = Minibread dough, free fatty acid analysis; type: biochemical, wheat
Method: as §4
The free fatty acids in the extract were analysed as Cu-salts in isooctane measured at 715 nm and quantified according to a calibration curve based on oleic acid (Kwon D. Y. and Rhee J. S. (1986), A simple and rapid Colourimetric Method for […]

[8] = Model dough, free fatty acid in dough (cowpea LAH); type: biochemical, wheat
Method: as §1, §4
The free fatty acids in the extract were analysed as Cu-salts in isooctane measured at 715 nm and quantified according to a calibration curve based on oleic acid (Kwon D. Y. and Rhee J. S. (1986), A simple and rapid Colourimetric Method for
In the first series of dough experiments purified cowpea LAH was tested in 10 g dough in different concentrations in order to test the activity of the enzyme in dough and in order to find a suitable dosage for baking experiments. The activity of the enzyme was measured by analysing the level of free fatty acid in dough.

[9] = Minibread dough, HPLC analysis of galactolipids; type: biochemical, wheat
Method: as §4, §5, §6

[10] = Withers-Martinez et al; cited from earlier work
[11] = Cowpea LAH % 0.1195, minibread dough
[12] = Cowpea LAH % 0.239, minibread dough
[13] = Cowpea LAH % 0.478, minibread dough
[14] = Cowpea LAH % 0.956, minibread dough
[15] = Test no. 2, Cowpea LAH 0.05 % in dough, fully proofed minibread dough
[16] = Test no. 3, Cowpea LAH 0.15 % in dough, fully proofed minibread dough
[17] = Test no. 3, Cowpea LAH 0.357 Units/kg flour, no DGDG added, minibread dough
[18] = Test no. 4, Cowpea LAH 0.357 Units/kg flour + DGDG 55% pure 0.2 %, minibread dough
[19] = Cowpea LAH 0.0048 Units/kg flour
[20] = Cowpea LAH 0.024 Units/kg flour

## 43 KDa protein from drought-stressed cowpea: galactolipid acyl hydrolase of Matos et al, expressed in a baculovirus system; amino acid sequence SEQ ID No. 1
[1]
  activity on triacylglycerol (triglyceride): no activity
  galactolipid acyl hydrolase activity: preferentially galactolipid acyl hydrolase activity
  phospholipid activity: some phospholipid activity

## Cowpea LAH: lipolytic acyl hydrolase (E.C. 3.1.1.26) isolated from cowpea (Vigna unguiculata) leaves; hydrolyses glycolipid and phospholipid, not triglyceride
[2]
  activity on triglyceride (GLC analysis): no activity
[3]
  Vmax: 5.6 mOD/min.
  enzyme activity: 0.010 U/ml
[4]; [11]
  Diglyceride: 0.96 ‰
  Monoglyceride: 0.40 ‰
  Triglyceride: 5.04 ‰
[4]; [12]
  Diglyceride: 1.23 ‰
  Monoglyceride: 0.41 ‰
  Triglyceride: 5.21 ‰
[4]; [13]
  Diglyceride: 0.90 ‰
  Monoglyceride: 0.43 ‰
  Triglyceride: 5.09 ‰
[4]; [14]
  Diglyceride: 1.01 ‰
  Monoglyceride: 0.41 ‰
  Triglyceride: 5.23 ‰
[4]; [15]
  Diglyceride: 0.95 ‰
  Monoglyceride: 0.43 ‰
  Triglyceride: 4.98 ‰
[4]; [16]
  Diglyceride: 0.96 ‰
  Monoglyceride: 0.43 ‰
  Triglyceride: 5.11 ‰
[4]; [17]
  Triglyceride: not detected
[4]; [18]
  Triglyceride: 5.82 ‰
[5]
  amounts of polar lipids in the oil: reduce the amounts of polar lipids
  triglyceride levels of the oil: not significantly affecting
[6]; [19]
  DGDG: 2.22 ‰
  DGMG: 0.20 ‰
  LPC: 1.50 ‰
  PC: 0.52 ‰
[6]; [20]
  DGDG: 2.12 ‰
  DGMG: 0.23 ‰
  LPC: 1.51 ‰
  PC: 0.48 ‰
[6]; Cowpea LAH 0.12 Units/kg flour
  DGDG: 1.84 ‰
  DGMG: 0.26 ‰
  LPC: 1.37 ‰
  PC: 0.35 ‰
[6]; Cowpea LAH 0.6 Units/kg flour
  DGDG: 1.08 ‰
  DGMG: 0.30 ‰
  LPC: 1.30 ‰
  PC: 0.29 ‰
[6]; Cowpea LAH 3.0 Units/kg flour
  DGDG: 0.30 ‰
  DGMG: 0.11 ‰
  LPC: 1.19 ‰
  PC: 0.00 ‰
[7]; Cowpea LAH 0.1195 Units/kg
  Free fatty acid in dough: 2.72 ‰
[7]; Cowpea LAH 0.239 Units/kg
  Free fatty acid in dough: 2.81 ‰
[7]; Cowpea LAH 0.478 Units/kg
  Free fatty acid in dough: 3.07 ‰
[7]; Cowpea LAH 0.956 Units/kg
  Free fatty acid in dough: 3.28 ‰
[7]; Test no 3, Cowpea LAH 0.357 Units/kg flour, no DGDG
  Free fatty acid: 3.07 ‰
[7]; Test no 4, Cowpea LAH 0.357 Units/kg flour + DGDG 55% pure 0.2 %
  Free fatty acid: 3.00 ‰
[7]; Test no 10, Cowpea LAH 1.07 Units/kg flour, no DGDG
  Free fatty acid: 3.32 ‰
[7]; Test no 11, Cowpea LAH 1.07 Units/kg flour + DGDG 55% pure 0.1 %
  Free fatty acid: 3.42 ‰
[7]; Test no 12, Cowpea LAH 1.07 Units/kg flour + DGDG 55% pure 0.2 %
  Free fatty acid: 3.64 ‰
[7]; Test no 13, Cowpea LAH 1.07 Units/kg flour + DGDG 55% pure 0.4 %
  Free fatty acid: 3.92 ‰
[7]; Test no 15, Cowpea LAH 1.07 Units/kg flour + Soy oil 2 %
  Free fatty acid: 3.35 ‰
[7]; Test no 16, Cowpea LAH 2.14 Units/kg flour + Soy oil 2 %
  Free fatty acid: 3.75 ‰
[7]; Test no. 2, Cowpea LAH 0.05 % in dough
  Fatty acid in dough: 2.75 ‰
[7]; Test no. 3, Cowpea LAH 0.15 % in dough
  Fatty acid in dough: 2.96 ‰
[8]; [19]
  Fatty acid in dough: 1.66 ‰
[8]; [20]
  Fatty acid in dough: 1.78 ‰
[8]; Cowpea LAH 0.12 Units/kg flour
  Fatty acid in dough: 2.13 ‰
[8]; Cowpea LAH 0.6 Units/kg flour
  Fatty acid in dough: 2.55 ‰
[8]; Cowpea LAH 3 Units/kg flour
  Fatty acid in dough: 3.44 ‰
[9]; [11]
  DGDG: 2.08 ‰
  DGMG: 0.23 ‰
[9]; [12]
  DGDG: 2.01 ‰
  DGMG: 0.20 ‰
[9]; [13]
  DGDG: 1.89 ‰
  DGMG: 0.24 ‰
[9]; [14]
  DGDG: 1.60 ‰
  DGMG: 0.20 ‰
[9]; [15]
  DGDG: 2.03 ‰
  DGMG: 0.27 ‰
[9]; [16]
  DGDG: 1.92 ‰
  DGMG: 0.28 ‰
[9]; [17]
  DGDG: 1.93 ‰
  DGMG: 0.23 ‰
[9]; [18]
  DGDG: 2.4 ‰
  DGMG: 0.25 ‰

B1: GPLRP2: guinea pig pancreatic lipase-related protein 2 (protein, UniProt P81139 1-434, looked up)
Pancreatic lipase-related …: AEVCYSHLGCFSDEKPWAGTSQRPIKSLPSDPKKINTRFLLYTNENQNSYQLITATDIATIKASNFNLNRKTRFIIHGFTDSGENSWLSDMCKNMFQVEKVNCICVDWKGGSKAQYSQASQNIRVVGAEVAYLVQVLSTSLNYAPENVHIIGHSLGAHTAGEAGKRLNGLVGRITGLDPAEPYFQDTPEEVRLDPSDAKFVDVIHTDISPILPSLGFGMSQKVGHMDFFPNGGKDMPGCKTGISCNHHRSIEYYHSSILNPEGFLGYPCASYDEFQESGCFPCPAKGCPKMGHFADQYPGKTNAVEQTFFLNTGASDNFTRWRYKVTVTLSGEKDPSGNINVALLGKNGNSAQYQVFKGTLKPDASYTNSIDVELNVGTIQKVTFLWKRSGISVSKPKMGASRITVQSGKDGTKYNFCSSDIVQENVEQTLSPC
[10]
  activity on galactolipids and phospholipids: has activity on galactolipids and phospholipids
  activity on triglyceride: reduced activity

B2: HPL: human pancreas lipase (protein, UniProt P16233 17-465, looked up)
Pancreatic triacylglycerol …: KEVCYERLGCFSDDSPWSGITERPLHILPWSPKDVNTRFLLYTNENPNNFQEVAADSSSISGSNFKTNRKTRFIIHGFIDKGEENWLANVCKNLFKVESVNCICVDWKGGSRTGYTQASQNIRIVGAEVAYFVEFLQSAFGYSPSNVHVIGHSLGAHAAGEAGRRTNGTIGRITGLDPAEPCFQGTPELVRLDPSDAKFVDVIHTDGAPIVPNLGFGMSQVVGHLDFFPNGGVEMPGCKKNILSQIVDIDGIWEGTRDFAACNHLRSYKYYTDSIVNPDGFAGFPCASYNVFTANKCFPCPSGGCPQMGHYADRYPGKTNDVGQKFYLDTGDASNFARWRYKVSVTLSGKKVTGHILVSLFGNKGNSKQYEIFKGTLKPDSTHSNEFDSDVDVGDLQMVKFIWYNNVINPTLPRVGASKIIVETNVGKQFNFCSPETVREEVLLTLTPC
[10]
  activity on triglyceride: only activity on triglyceride
